Reference: patent US10687543B2, “Probiotic bacterial molecules and their use in methods to treat/prevent infection by harmful bacteria and to provide nutritional health” (priority 2008, dated 2020)

System: E. coli O157:H7 strain VS94
Assay type: cell-based, Escherichia coli O157:H7

Compound: CC(C)NCC(O)COc1cccc2ccccc12 (stereo not drawn) [β-blocker, propanolol]
- % Adherence: 22%
